# Data as given in paper PMC5656653, “Evaluation of Ga-DOTA-(D-Asp)n as bone imaging agents: D-aspartic acid peptides as carriers to bone” (Scientific Reports, 2017).
# Read-outs that look alike come from different tables or passages of the source. Where a SMILES comes first, the peptide text is derived from it. [ ]: non-standard residue; d: D form. The star is where a group is joined. DOTA = O=C(O)CN1CCN(CC(=O)O)CCN(CC(=O)*)CCN(CC(=O)O)CC1
# Assay: Biodistribution experiments in normal mice after i.v. injection
# Type: in vivo
# Settings: for tissue uptake dose at 10 min / tissue uptake dose at 1 h / tissue uptake dose at 3 h: male, ddY, total radioactivity
# Protocol: Experiments with animals were conducted in strict accordance with the Guidelines for the Care and Use of Laboratory Animals of Kanazawa University. The animal experimental protocols used were approved by the Committee on Animal Experimentation of Kanazawa University (Permit Number: AP-132633). Biodistribution experiments were performed after intravenous administration of each diluted tracer solution (37–740 kBq/100 μL) to 6-week-old male ddY mice (27–32 g, Japan SLC, Inc., Hamamatsu, Japan). Four or five mice at each time point after the administration of each compound were sacrificed by decapitation at 10, 60, and 180 min post-injection. Tissues of interest were taken and weighed. Complete left femurs were isolated as representative bone samples, radioactivity was determined using gamma counters (AccuFLEX γ ARC-8001 in the case of ^18F, Hitachi, Ltd.), and background counts and physical decay were corrected during counting.
# [1] = mouse, in vivo, iv, Biodistribution of radioactivity, Blood
# [2] = mouse, in vivo, iv, Biodistribution of radioactivity, Bone (Femur)
# [3] = mouse, in vivo, iv, Biodistribution of radioactivity, Brain
# [4] = mouse, in vivo, iv, Biodistribution of radioactivity, Heart
# [5] = mouse, in vivo, iv, Biodistribution of radioactivity, Kidney
# [6] = mouse, in vivo, iv, Biodistribution of radioactivity, Large-intestine
# [7] = mouse, in vivo, iv, Biodistribution of radioactivity, Liver
# [8] = mouse, in vivo, iv, Biodistribution of radioactivity, Lung
# [9] = mouse, in vivo, iv, Biodistribution of radioactivity, Muscle
# [10] = mouse, in vivo, iv, Biodistribution of radioactivity, Pancreas
# [11] = mouse, in vivo, iv, Biodistribution of radioactivity, Small-intestine
# [12] = mouse, in vivo, iv, Biodistribution of radioactivity, Spleen
# [13] = mouse, in vivo, iv, Biodistribution of radioactivity, Stomach
smiles,measurement,setting,value
"O=C(O)C[C@@H](NC(=O)[C@@H](CC(=O)O)NC(=O)[C@@H](CC(=O)O)NC(=O)[C@@H](CC(=O)O)NC(=O)[C@@H](CC(=O)O)NC(=O)[C@@H](CC(=O)O)NC(=O)[C@@H](CC(=O)O)NC(=O)[C@@H](CC(=O)O)NC(=O)[C@@H](CC(=O)O)NC(=O)[C@@H](CC(=O)O)NC(=O)[C@@H](CC(=O)O)NC(=O)CN1CCN(CC(=O)O)CCN(CC(=O)O)CCN(CC(=O)O)CC1)C(=O)O [^67Ga-DOTA-(D-Asp)11, metal not drawn] ({DOTA}-[dD][dD][dD][dD][dD][dD][dD][dD][dD][dD][dD]-OH)",tissue uptake dose at 10 min,"mouse, in vivo, iv, mice, i.v., 10 min after injection, mean (SD), footnote b, read-out: Biodistribution of radioactivity, Stomach",0.18 %ID
same,tissue uptake dose at 10 min,"mouse, in vivo, iv, mice, i.v., 10 min after injection, mean (SD), read-out: Biodistribution of radioactivity, Blood",1.71 %ID
same,tissue uptake dose at 10 min,"mouse, in vivo, iv, mice, i.v., 10 min after injection, mean (SD), read-out: Biodistribution of radioactivity, Bone (Femur)",11.9 %ID
same,tissue uptake dose at 10 min,"mouse, in vivo, iv, mice, i.v., 10 min after injection, mean (SD), read-out: Biodistribution of radioactivity, Brain",0.05 %ID
same,tissue uptake dose at 10 min,"mouse, in vivo, iv, mice, i.v., 10 min after injection, mean (SD), read-out: Biodistribution of radioactivity, Heart",0.65 %ID
same,tissue uptake dose at 10 min,"mouse, in vivo, iv, mice, i.v., 10 min after injection, mean (SD), read-out: Biodistribution of radioactivity, Kidney",12.8 %ID
same,tissue uptake dose at 10 min,"mouse, in vivo, iv, mice, i.v., 10 min after injection, mean (SD), read-out: Biodistribution of radioactivity, Large-intestine",0.28 %ID
same,tissue uptake dose at 10 min,"mouse, in vivo, iv, mice, i.v., 10 min after injection, mean (SD), read-out: Biodistribution of radioactivity, Liver",0.51 %ID
same,tissue uptake dose at 10 min,"mouse, in vivo, iv, mice, i.v., 10 min after injection, mean (SD), read-out: Biodistribution of radioactivity, Lung",1.24 %ID
same,tissue uptake dose at 10 min,"mouse, in vivo, iv, mice, i.v., 10 min after injection, mean (SD), read-out: Biodistribution of radioactivity, Muscle",0.58 %ID
same,tissue uptake dose at 10 min,"mouse, in vivo, iv, mice, i.v., 10 min after injection, mean (SD), read-out: Biodistribution of radioactivity, Pancreas",0.53 %ID
same,tissue uptake dose at 10 min,"mouse, in vivo, iv, mice, i.v., 10 min after injection, mean (SD), read-out: Biodistribution of radioactivity, Small-intestine",0.38 %ID
same,tissue uptake dose at 10 min,"mouse, in vivo, iv, mice, i.v., 10 min after injection, mean (SD), read-out: Biodistribution of radioactivity, Spleen",0.44 %ID
same,tissue uptake dose at 1 h,"mouse, in vivo, iv, mice, i.v., 60 min after injection, mean (SD), footnote b, read-out: Biodistribution of radioactivity, Stomach",0.04 %ID
same,tissue uptake dose at 1 h,"mouse, in vivo, iv, mice, i.v., 60 min after injection, mean (SD), read-out: Biodistribution of radioactivity, Blood",0.14 %ID
same,tissue uptake dose at 1 h,"mouse, in vivo, iv, mice, i.v., 60 min after injection, mean (SD), read-out: Biodistribution of radioactivity, Bone (Femur)",15.3 %ID
same,tissue uptake dose at 1 h,"mouse, in vivo, iv, mice, i.v., 60 min after injection, mean (SD), read-out: Biodistribution of radioactivity, Brain",0.01 %ID
same,tissue uptake dose at 1 h,"mouse, in vivo, iv, mice, i.v., 60 min after injection, mean (SD), read-out: Biodistribution of radioactivity, Heart",0.04 %ID
same,tissue uptake dose at 1 h,"mouse, in vivo, iv, mice, i.v., 60 min after injection, mean (SD), read-out: Biodistribution of radioactivity, Kidney",2.92 %ID
same,tissue uptake dose at 1 h,"mouse, in vivo, iv, mice, i.v., 60 min after injection, mean (SD), read-out: Biodistribution of radioactivity, Large-intestine",0.03 %ID
same,tissue uptake dose at 1 h,"mouse, in vivo, iv, mice, i.v., 60 min after injection, mean (SD), read-out: Biodistribution of radioactivity, Liver",0.2 %ID
same,tissue uptake dose at 1 h,"mouse, in vivo, iv, mice, i.v., 60 min after injection, mean (SD), read-out: Biodistribution of radioactivity, Lung",0.08 %ID
same,tissue uptake dose at 1 h,"mouse, in vivo, iv, mice, i.v., 60 min after injection, mean (SD), read-out: Biodistribution of radioactivity, Muscle",0.18 %ID
same,tissue uptake dose at 1 h,"mouse, in vivo, iv, mice, i.v., 60 min after injection, mean (SD), read-out: Biodistribution of radioactivity, Pancreas",0.09 %ID
same,tissue uptake dose at 1 h,"mouse, in vivo, iv, mice, i.v., 60 min after injection, mean (SD), read-out: Biodistribution of radioactivity, Small-intestine",0.07 %ID
same,tissue uptake dose at 1 h,"mouse, in vivo, iv, mice, i.v., 60 min after injection, mean (SD), read-out: Biodistribution of radioactivity, Spleen",0.13 %ID
same,tissue uptake dose at 3 h,"mouse, in vivo, iv, mice, i.v., 180 min after injection, mean (SD), footnote b, read-out: Biodistribution of radioactivity, Stomach",0.02 %ID
same,tissue uptake dose at 3 h,"mouse, in vivo, iv, mice, i.v., 180 min after injection, mean (SD), read-out: Biodistribution of radioactivity, Blood",0.08 %ID
same,tissue uptake dose at 3 h,"mouse, in vivo, iv, mice, i.v., 180 min after injection, mean (SD), read-out: Biodistribution of radioactivity, Bone (Femur)",15.4 %ID
same,tissue uptake dose at 3 h,"mouse, in vivo, iv, mice, i.v., 180 min after injection, mean (SD), read-out: Biodistribution of radioactivity, Brain",0.02 %ID
same,tissue uptake dose at 3 h,"mouse, in vivo, iv, mice, i.v., 180 min after injection, mean (SD), read-out: Biodistribution of radioactivity, Heart",0.03 %ID
same,tissue uptake dose at 3 h,"mouse, in vivo, iv, mice, i.v., 180 min after injection, mean (SD), read-out: Biodistribution of radioactivity, Kidney",1 %ID
same,tissue uptake dose at 3 h,"mouse, in vivo, iv, mice, i.v., 180 min after injection, mean (SD), read-out: Biodistribution of radioactivity, Large-intestine",0.11 %ID
same,tissue uptake dose at 3 h,"mouse, in vivo, iv, mice, i.v., 180 min after injection, mean (SD), read-out: Biodistribution of radioactivity, Liver",0.13 %ID
same,tissue uptake dose at 3 h,"mouse, in vivo, iv, mice, i.v., 180 min after injection, mean (SD), read-out: Biodistribution of radioactivity, Lung",0.05 %ID
same,tissue uptake dose at 3 h,"mouse, in vivo, iv, mice, i.v., 180 min after injection, mean (SD), read-out: Biodistribution of radioactivity, Muscle",0.06 %ID
same,tissue uptake dose at 3 h,"mouse, in vivo, iv, mice, i.v., 180 min after injection, mean (SD), read-out: Biodistribution of radioactivity, Pancreas",0.04 %ID
same,tissue uptake dose at 3 h,"mouse, in vivo, iv, mice, i.v., 180 min after injection, mean (SD), read-out: Biodistribution of radioactivity, Small-intestine",0.05 %ID
same,tissue uptake dose at 3 h,"mouse, in vivo, iv, mice, i.v., 180 min after injection, mean (SD), read-out: Biodistribution of radioactivity, Spleen",0.1 %ID
same,F/B ratio (Femur:blood ratio),"mice, i.v., 10 min after injection, mean (SD)",7.01 (0.56)
same,F/B ratio (Femur:blood ratio),"mice, i.v., 60 min after injection, mean (SD)",147.10 (71.25)
same,F/B ratio (Femur:blood ratio),"mice, i.v., 180 min after injection, mean (SD)",248.95 (170.64)
same,Accumulation of radioactivity in bone (in words),"normal mice, i.v.",high accumulation and retention of radioactivity in bone
"O=C(O)CC[C@@H](NC(=O)[C@@H](CCC(=O)O)NC(=O)[C@@H](CCC(=O)O)NC(=O)[C@@H](CCC(=O)O)NC(=O)[C@@H](CCC(=O)O)NC(=O)[C@@H](CCC(=O)O)NC(=O)[C@@H](CCC(=O)O)NC(=O)[C@@H](CCC(=O)O)NC(=O)[C@@H](CCC(=O)O)NC(=O)[C@@H](CCC(=O)O)NC(=O)[C@@H](CCC(=O)O)NC(=O)[C@@H](CCC(=O)O)NC(=O)[C@@H](CCC(=O)O)NC(=O)[C@@H](CCC(=O)O)NC(=O)CN1CCN(CC(=O)O)CCN(CC(=O)O)CCN(CC(=O)O)CC1)C(=O)O [^67Ga-DOTA-(D-Glu)14, metal not drawn]",tissue uptake dose at 10 min,[1],2.09 %ID
same,tissue uptake dose at 1 h,[1],0.1 %ID
same,tissue uptake dose at 3 h,[1],0.01 %ID
same,tissue uptake dose at 10 min,[2],11 %ID
same,tissue uptake dose at 1 h,[2],11.8 %ID
same,tissue uptake dose at 3 h,[2],12.2 %ID
same,tissue uptake dose at 10 min,[3],0.05 %ID
same,tissue uptake dose at 1 h,[3],0.01 %ID
same,tissue uptake dose at 3 h,[3],0.01 %ID
same,tissue uptake dose at 10 min,[4],0.79 %ID
same,tissue uptake dose at 1 h,[4],0.08 %ID
same,tissue uptake dose at 3 h,[4],0.05 %ID
same,tissue uptake dose at 10 min,[5],13.4 %ID
same,tissue uptake dose at 1 h,[5],10.6 %ID
same,tissue uptake dose at 3 h,[5],6.59 %ID
same,tissue uptake dose at 10 min,[6],0.42 %ID
same,tissue uptake dose at 1 h,[6],0.18 %ID
same,tissue uptake dose at 3 h,[6],0.25 %ID
same,tissue uptake dose at 10 min,[7],0.46 %ID
same,tissue uptake dose at 1 h,[7],0.12 %ID
same,tissue uptake dose at 3 h,[7],0.08 %ID
same,tissue uptake dose at 10 min,[8],1.65 %ID
same,tissue uptake dose at 1 h,[8],0.13 %ID
same,tissue uptake dose at 3 h,[8],0.04 %ID
same,tissue uptake dose at 10 min,[9],0.78 %ID
same,tissue uptake dose at 1 h,[9],0.19 %ID
same,tissue uptake dose at 3 h,[9],0.02 %ID
same,tissue uptake dose at 10 min,[10],0.68 %ID
same,tissue uptake dose at 1 h,[10],0.13 %ID
same,tissue uptake dose at 3 h,[10],0.06 %ID
same,tissue uptake dose at 10 min,[11],0.37 %ID
same,tissue uptake dose at 1 h,[11],0.22 %ID
same,tissue uptake dose at 3 h,[11],0.15 %ID
same,tissue uptake dose at 10 min,[12],0.37 %ID
same,tissue uptake dose at 1 h,[12],0.06 %ID
same,tissue uptake dose at 3 h,[12],0.03 %ID
same,tissue uptake dose at 10 min,[13],0.29 %ID
same,tissue uptake dose at 1 h,[13],0.19 %ID
same,tissue uptake dose at 3 h,[13],0.29 %ID
same,Accumulation of radioactivity in bone (in words),"mouse, in vivo, iv",high accumulation and retention of radioactivity in bone
same,Clearance from the blood (in words),"mouse, in vivo, iv",rapid clearance from the blood
same,Radioactivity in the kidneys (in words),"mouse, in vivo, iv",retained
